The results in this text go back to patent US12459900B2, “Compounds for treating conditions related to oxidative stress” (priority 2021, dated 2025).

Test [1] is described as follows: DPPH antioxidant (free radical scavenging) assay. The format is biochemical. The conditions noted are these: duplicate, 5 concentrations, read at 517 nm; read-out: IC50 (DPPH assay, anti-oxidant activity). How it is done: NWD-19, NWD-15, and NWD-14 were evaluated for antioxidant activity using the 2,2-diphenyl-1-picrylhydrazyl (DPPH) assay. The DPPH assay was used to predict antioxidant activities by mechanism in which antioxidants act to inhibit lipid oxidation, so scavenging of DPPH radical and therefore determinate free radical scavenging capacity. The DPPH antioxidant assay kit (Dokindo Molecular Technologies, Inc.) was used, and the plates were read at 517 nm on the BioTek Synergy HT plate reader (Gen5 software). All compounds were tested in duplicate at 5 concentrations to determine the anti-oxidant activity of each compound.
For orientation: DPPH is a stable violet radical that fades when it is reduced.

The test system of test [2] is Primary retinal pigment endothelial cell line (RPE). Nature of the test: Protection from AAPH induced oxidative stress in RPE cells (viability, cell titer glo 2.0). The conditions noted are these: 1.25 μM NWD-19 pre-treatment overnight, AAPH 10 mM overnight. The format is cell-based. How it is done:
Primary retinal pigment endothelial cell line (RPE) were plated in appropriate growth medium in a 96 well plate overnight (16-24 hrs). Once 80-90% confluence was achieved the cells were then treated with NWD-19 at a concentration range of 0.039 uM to 1.25 μM. Appropriate blanks were also added and the plate was incubated overnight in a CO2 (95%)/O2 (5%) incubator at 37° C. temperature. Following incubation all wells were treated with AAPH at 10 mM to induce oxidative stress and incubated overnight. After incubation the plate was assayed for viability using cell titer glo 2.0 assay (Promega).
A general note: ATP-based viability assays read luminescence as a measure of living cells.

The next test has as its system CT-26 cells. Nature of the test: Cytotoxicity in CT-26 cancer cell line (cell titer glo 2.0). The format is cell-based. The conditions noted are these: Mus musculus, CT26; overnight incubation, triplicate, 6 concentrations; read-out: EC50 (percent survival, CT-26 cells). How it is done:
The CT-26 cell lines were plated at the appropriate pre-determined plating density in the 96 well plate and allowed to attach for about 16 hrs. After a suitable confluence was ensured (about 70-80%) the media was replaced with fresh media and the test compound was added to the plate in triplicate at 6 concentrations. Appropriate vehicle and positive controls were also added, and the plate was incubated overnight in a CO2 (95%)/O2 (5%) incubator at 37° C. temperature. After incubation the plate was assayed for cytotoxicity using cell titer glo 2.0 assay (Promega) on the BioTek Synergy HT plate reader (Gen5 software).

A further test deals with RPE primary cells. Put plainly: TBARS assay in RPE primary cells after AAPH induced oxidative stress. Format: cell-based. To be noted: AAPH 10 mM, activity up to 0.078 μM concentration. As to the method: Primary retinal pigment endothelial cell line (RPE) were plated in appropriate growth medium in a 96 well plate overnight (16-24 hrs). Cells were then treated with NWD-19 at 7 concentrations and incubated overnight. Following incubation all wells were treated with AAPH at 10 mM to induce oxidative stress and incubated overnight. The TBARS assay was then utilized to evaluate the anti-oxidant potential of the compound in the RPE cells at various concentrations.

Test [3] deals with Benzalkonium chloride induced dry eyes. Nature of the test: Benzalkonium chloride induced dry eyes in C57BL/6 mice. Format: in vivo. The conditions noted are these: daily topical drops 10 μM from day 8 to day 21 of 0.2% BAC treatment. As to the method: Benzalkonium chloride (BAC) is a commonly used preservative in ophthalmic solutions. However, it has been reported to increase the risk of dry eye disease due to its toxicity on the ocular surface, the conjunctiva, the cornea and even deeper ocular structures. 5 uL 0.2% BAC in mice eyes has been reported to cause dry eye symptoms without affecting aqueous tear production, inflammation, or corneal smoothness (Richard Zhang, et al. Dose-dependent benzalkonium chloride toxicity imparts ocular surface epithelial changes with features of dry eye disease, The Ocular Surface, Volume 18, Issue 1, 2020, Pages 158-169).
Symptoms of dry eye disease were induced in 24 male and female C57/BL6 mice for 21 days using 0.2% daily eye drops of BAC. Daily topical application of NWD-19 at 10 μM concentration started at day 8 post BAC treatment and continued until day 21, whereas the control mice eyes were treated with PBS during this period. […] At pre-dose and subsequently on days 7, 14 and 21 post dose the mice eyes were examined by a veterinary ophthalmologist for corneal lesions and dry eye was also evaluated using a drop of 0.1% fluorescein solution in each treated eye and observation and scoring using a cobalt blue filter. […]

Take `CC1=NN(c2ccccc2)C(=O)C1CCCC[P+](c1ccccc1)(c1ccccc1)c1ccccc1` (stereo not shown) [NWD-15, (4-(3-methyl-5-oxo-1-phenyl-4,5-dihydro-1H-2l4-pyrazol-4-yl)butyl) triphenyl-phosphonium bromide]: in test [1], the IC50 was determined as 2.3 µM.

In the case of `CC1=NN(c2ccccc2)C(=O)C1CCCCCCCCCC[P+](c1ccccc1)(c1ccccc1)c1ccccc1.[Br-]` (stereo not shown) [NWD-19, (10-(3-methyl-5-oxo-1-phenyl-4,5-dihydro-1H-pyrazol-4-yl)decyl) triphenyl phosphonium bromide], the “cell survival after AAPH induced oxidative stress” value in test [2] is about 50%. In addition, the EC50 with CT-26 cells turned out to be 9.6 µM. The “anti-oxidant activity in TBARS assay (malonaldehyde equivalents)” value with RPE primary cells is “significant anti-oxidant activity”. In addition, the IC50 in test [1] was 2.1 µM. In addition, in test [3], the “condition of the eyes (corneal lesions, dry eye fluorescein scoring) compared to vehicle control eyes” value is “masked improvement”.

`O=c1cc(CCCC[P+](c2ccccc2)(c2ccccc2)c2ccccc2)[nH]n1-c1ccccc1` [NWD-14, (4-(5-oxo-1-phenyl-2,5-dihydro-1H-pyrazol-3-yl)butyl) triphenyl phosphonium bromide]: the concentration for half-maximal inhibition (IC50) in test [1] came to 2.8 µM.

By IC50 is commonly meant the point on the concentration scale where inhibition reaches its midpoint. In general, EC50 refers to the concentration that produces a half-maximal response.
